Source: US7041661B2, “Use of thiazolobenzoheterocycles for treating multiple sclerosis” (Aventis Pharmaceuticals Inc., priority 2002, dated 2006)

Assays:
[1] = tested on: Experimental Allergic Encephalomyelitis (EAE) of female DA (Dark Agouti) rats; test: Rat spinal cord homogenate induced EAE in DA rats, daily neurological score; assay type: in vivo; conditions: doses of 1, 3 and 10 mg/kg p.o., twice daily for 28 days from one day post-immunization
Experimental: EAE was induced in female DA (Dark Agouti) rats (8 wks old, from Harlan) by immunization with the 25% w/v rat spinal cord homogenate (r-SCH) in saline emulsified with an equal volume of CFA supplemented with 40 mg/10 ml heated-killed mycobacterium tuberculosis H37Ra (BD Bioscience). Rats were injected s.c. with 0.2 ml of emulsion in the base of tail.
Rats were scored daily before treatment starting from day 5 post-immunization through the entire experiment by a well-known behavioral scale system: Score 0, normal; 0.5, partial limp tail; 1, complete limp tail; 2, abnormal gait; 3, partial hind limb paralysis, and mice unable to walk normally; 3.5, one leg is completely paralyzed, and one leg is partially paralyzed; 4, complete hind limb paralysis; 4.5, Legs are completely paralyzed and Moribund; 5, death due to EAE. Compound A and Compound B (active metabolite of Compound A), two representatives of thiazolobenzoheterocyclic compounds, were examined in DA rat EAE procedure.
Compound A and Compound B were given one-day post-immunization, p.o. route, twice daily for 28 days.

[2] = tested on: Experimental Allergic Encephalomyelitis (EAE) of female SJL mice; test: PLP 139-151 induced EAE in SJL/J mice, daily neurological score; assay type: in vivo, mouse
Source text: The utility of the thiazobenzohetercyclic compounds of formula I for the treatment of various conditions associated with multiple sclerosis can be assessed by measuring their ability to inhibit effects of experimental allergic encephalomyelitis (EAE) in laboratory animals.
Experimental Autoimmune Encephalomyelitis (EAE) is a T-cell-mediated autoimmune disease of the nervous system that develops in susceptible animals following sensitization with either whole spinal cord homogenate or a myelin component. It is known that EAE reflects or mimics many of the pathophysiological steps in MS, including the role of certain adhesion molecules, the influence of T cells and antibodies reactive to components of the myelin sheath, the participation of metalloproteases in penetrating the blood-brain barrier, and the cytotoxic role of certain cytokines. One of the marketed MS therapies, glatiramer acetate (Copaxone®) was developed preclinically based on its success in treating various models of EAE.
EAE was induced in female SJL/J mice (8 wks old, from Jackson Laboratories) by immunization with the myelin Proteolipid Protein (PLP 139-151) from BACHEM, Bioscience. PLP139-151 was dissolved in H2O:PBS (1:1) solution to a concentration of 7.5 mg/10 ml (for 75 ug PLP per mouse) and emulsified with an equal volume of CFA supplemented with 40 mg/10 ml heated-killed mycobacterium tuberculosis H37Ra (BD Bioscience). Mice were injected s.c. with 0.2 ml of peptide emulsion in the abdominal flank (0.1 ml on each side). On the same day and 72 hr later, mice were injected i.v. with 35 ng and 50 ng of Bordetella Pertussis toxin (List Biological Laboratories ) in saline, respectively.
Compound A, one representative of thiazolobenzoheterocyclic compounds, was examined in the PLP/SJL mouse EAE model.
Study 1: There were five groups, i.e., vehicle (water), Compound A at doses of 5, 10 and 20 mg/kg and dexamethasone (DEX) at a dose of 3 mg/kg. Treatment was begun on day 7 after PLP immunization. Mice were dosed twice per day for 22 days. Results are as follows:
Study 2: There were five groups, i.e., vehicle (water), Compound A at doses of 10, 20 and 30/40 mg/kg and dexamethasone (DEX) at a dose of 3 mg/kg. Treatment was begun on day 7 after PLP immunization. Mice were dosed twice per day for 18 days.

[3] = Study 2, SJL EAE mice, twice per day for 18 days from day 7

Structure (SMILES)	EAE incidence [1]	cumulative neurological scores [1]	maximal neurological scores [1]	neurological deficits in the EAE mice (FIG. 1) ([2]; Study 1, doses of 10 and 20 mg/kg p.o., twice per day for 22 days from day 7 after PLP immunization, vs vehicle)	EAE incidence [2, 3]	disease onset [2, 3]	neurological scores in SJL EAE mice ([2]; Study 2, doses of 10 and 20 mg/kg, twice per day for 18 days from day 7 after PLP immunization)
N=c1sc2cc(C(F)(F)F)cc3c2n1CC[S+]([O-])C3 (racemic) [Compound A, (R,S)-2-imino-9-trifluoromethyl-4,5-dihydro-2H,7H-thiazolo[3,4,5-de][4,1]benzothiazepine-6-oxide]	significantly reduced	significantly reduced	significantly reduced	significantly reduced	reduced	delayed	significant reduced
N=c1sc2cc(C(F)(F)F)cc3c2n1CCS(=O)(=O)C3 [Compound B, (R,S)-2-imino-9-trifluoromethyl-4,5-dihydro-2H,7H-thiazolo[3,4,5-de][4,1]benzothiazepine-6,6-dioxide]	significantly reduced	significantly reduced	significantly reduced				
